Molecular target: T1, stearoyl-CoA desaturase (SCD) (Rattus norvegicus, UniProt P07308)
T1 construct: from tissue; host or cells: liver microsomes of male Sprague Dawley rats, with SCD induced by a carbohydrate-rich diet
T1 sequence (P07308 1-358): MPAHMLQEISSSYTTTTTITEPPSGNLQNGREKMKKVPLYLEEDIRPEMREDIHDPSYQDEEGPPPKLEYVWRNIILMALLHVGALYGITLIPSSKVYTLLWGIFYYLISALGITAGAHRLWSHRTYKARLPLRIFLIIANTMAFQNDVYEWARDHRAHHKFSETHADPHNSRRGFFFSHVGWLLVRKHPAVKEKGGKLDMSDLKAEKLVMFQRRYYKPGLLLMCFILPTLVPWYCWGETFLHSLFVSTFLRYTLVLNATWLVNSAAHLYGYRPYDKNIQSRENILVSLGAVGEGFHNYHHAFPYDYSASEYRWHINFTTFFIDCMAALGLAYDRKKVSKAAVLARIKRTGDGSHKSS
Assay: SCD assay, rat liver microsomes with [3H]stearoyl CoA (adapted from Talamo and Bloch)
Type: biochemical
Conditions: second table, same SCD assay
Excerpt: The identification of compounds of the invention as SCD inhibitors was readily accomplished using the SCD enzyme and microsomal assay procedure described in Talamo and Bloch (1969) Analytical Biochemistry 29:300-304.
The rat liver microsomes were collected according to the procedure described in Ozols (1990) Methods Enzm, 182:225.
Male Spraque Dawley Rats were placed on regimented fasting protocol for one week to stimulate SCD enzymatic activity. 48-hour periods were alternated between feeding and fasting to induce and down-regulate SCD activity with SCD activity being induced via carbohydrate rich diet prior to liver perfusion and collection.
The rats were anesthetized with Isoflurane inhalation anesthetic, the liver perfused with cold phosphate buffered saline (PBS), weighed, and chilled in cold homogenization buffer (250 mM sucrose, 10 mM Tris, 1 mM EDTA, pH 7.6.
The livers were finely minced and placed in homogenization tube. 40 mL of homogenization buffer was added to the homogenization tube and the liver homogenized and centrifuged in a pre-chilled SLA-600 TC at 800G rotor for 10 min at 4° C.
Following centrifugation, the supernatant was collected and the pellet removed and discarded. This supernatant was then centrifuged at 10,000G for 35 minutes. Following centrifugation, the supernatant was collected and the pellet discarded. The supernatant was further centrifuged in a pre-chilled 45-Ti rotor at 130,000 G (41,000 RPM) for 90 minutes at 4° C.
The supernatant was then aspirated off and the collected microsomal pellet washed in 25 mL of Glycerol PBS (1×PBS 7.4, 20% Glycerol) and resuspended in 4-5 volumes of Glycerol PBS.
The protein concentration of the microsomal preparation was determined by BCA assay (Pierce) and the microsomes were aliquoted and stored at −80° C.
Biobeads were ground to a smaller size in a mortar and pestle and filtered through 300 μM mesh and then resuspended in 3.6% TCA.
SCD was determined in the desaturase assay buffer. This assay buffer contained 0.1 M Tris buffer, pH 7.2, 2 mM NADH, 4.8 mM ATP, 0.5 mM CoA, 4.8 mM MgCl2, and 0.1% BSA.
1 μl of each compound of Formula I was added to an assay plate by a low volume (0.5-10 μL) multichannel pipette. A DMSO control was also prepared. The microsomes were quickly thawed and added to assay buffer so that a concentration of 1-0.1 mg/ml was achieved (0.5-0.05 mg/ml assay final). 50 μl of the microsome suspension in assay buffer was then added into each well in the compound assay plate, the plate was covered, and the microsomes preincubated with the compounds for 30-60 minutes on the orbital shaker, 50-75 rpm, at room temperature.
After preincubation, the reaction was initiated by the addition of 50 μl of substrate solution (20 μM Stearoyl CoA, [3H]Stearoyl CoA, 74nCi) to the preincubated microsomes/compound suspensions in MilliQ (Millipore) H2O. The reaction mixtures were then incubated for 45 minutes on the orbital shaker at 50-75 rpm at room temperature.
The reaction was terminated by the addition of 10 μl of 21% trichloroacetic acid (TCA) to the reaction mixture followed incubation on the orbital shaker for 30 minutes at 50-75 rpm at room temperature followed by centrifugation for 5 minutes at 3700 rpm.
50 μl of a 6% Bio-Bead suspension in H2O was added to the reaction mixture and the assay plate was sealed. The Bio-Bead mixture was incubated on the orbital shaker for 1 to 24 hours, 100-150 rpm at room temperature, and then the mixture was centrifuged at 2000g for 5 minutes to pellet the Bio-Beads.
25 μl of the supernatant was harvested from each well and transferred to a detection plate. 100 μl of OptiPhase SuperMix scinitillation cocktail (containing sufficient NaOH to neutralize the TCA) was added and the solutions mixed by vigorous shaking (300-400 rpm) for 5 minutes at room temperature.

Question: `COc1ccc(-c2nc3cc(NC(=O)OCc4ccccc4)ccc3n(CCNC(C)=O)c2=O)cc1` [compound 46, benzyl 1-(2-acetamidoethyl)-3-(4-methoxyphenyl)-2-oxo-1,2-dihydroquinoxalin-6-ylcarbamate] was tested. Which IC50 did it give?
Answer: 20000 nM

Question: `Cc1nc2ccc(NCc3cccc(C(F)(F)F)c3)cc2n(CCNC(=O)CCO)c1=O` [compound 49, 3-hydroxy-N-(2-(3-methyl-2-oxo-7-(3-(trifluoromethyl)benzylamino)quinoxalin-1(2H)-yl)ethyl)propanamide] was tested. Which IC50 did it give?
Answer: 1100 nM

Question: With `Cc1nc2ccc(NCc3cccc(C(F)(F)F)c3)cc2n(CCC(=O)NCCO)c1=O` [compound 50, N-(2-hydroxyethyl)-3-(3-methyl-2-oxo-7-(3-(trifluoromethyl)benzylamino)quinoxalin-1(2H)-yl)propanamide] as the compound, how does the IC50 read?
Answer: 230 nM

Question: For `Cc1nc2ccc(NCc3cccc(C(F)(F)F)c3)cc2n(CCNC(N)=O)c1=O` [compound 53, 1-(2-(3-methyl-2-oxo-7-(3-(trifluoromethyl)benzylamino)quinoxalin-1(2H)-yl)ethyl)urea], which IC50 is on record?
Answer: 15 nM

Question: Which IC50 does the source give for `COc1ccc(-c2nc3ccc(NCCc4cccc(Cl)c4)cc3n(CCNC(C)=O)c2=O)cc1` [compound 54, N-(2-(7-(3-chlorophenethylamino)-3-(4-methoxyphenyl)-2-oxoquinoxalin-1(2H)-yl)ethyl)acetamide] here?
Answer: 100 nM

Question: For `COc1ccc(-c2nc3ccc(NCc4ccc(C)c(C)c4)cc3n(CCNC(C)=O)c2=O)cc1` [compound 57, N-(2-(7-(3,4-dimethylbenzylamino)-3-(4-methoxyphenyl)-2-oxoquinoxalin-1(2H)-yl)ethyl)acetamide], which IC50 is on record?
Answer: 26 nM

Question: `COc1ccc(-c2nc3ccc(NCCc4ccc(Cl)cc4)cc3n(CCNC(C)=O)c2=O)cc1` [compound 58, N-(2-(7-(4-chlorophenethylamino)-3-(4-methoxyphenyl)-2-oxoquinoxalin-1(2H)-yl)ethyl)acetamide] was tested. Which IC50 did it give?
Answer: 82 nM

Question: For `COc1ccc(-c2nc3ccc(NCc4ccc(Cl)c(C(F)(F)F)c4)cc3n(CCNC(C)=O)c2=O)cc1` [compound 62, N-(2-(7-(4-chloro-3-(trifluoromethyl)benzylamino)-3-(4-methoxyphenyl)-2-oxoquinoxalin-1(2H)-yl)ethyl)acetamide;], which IC50 is on record?
Answer: 6 nM

Question: For `COc1ccc(-c2nc3ccc(NCc4ccc(F)c(C)c4)cc3n(CCNC(C)=O)c2=O)cc1` [compound 63, N-(2-(7-(4-fluoro-3-methylbenzylamino)-3-(4-methoxyphenyl)-2-oxoquinoxalin-1(2H)-yl)ethyl)acetamide], which IC50 is on record?
Answer: 5 nM

Question: Which IC50 does the source give for `COc1ccc(-c2nc3ccc(NCc4cc(C(F)(F)F)ccn4)cc3n(CCNC(C)=O)c2=O)cc1` [compound 64, N-(2-(3-(4-methoxyphenyl)-2-oxo-7-((4-(trifluoromethyl)pyridin-2-yl)methylamino)quinoxalin-1(2H)-yl)ethyl)acetamide] here?
Answer: 39 nM

Question: “(R)-3-(2-(4-methoxyphenyl)-3-oxo-6-(3-(trifluoromethyl)benzylamino)pyrido[2,3-b]pyrazin-4(3H)-yl)butanamide [compound 22]” was tested. Which IC50 did it give?
Answer: 67 nM

Question: “(S)-2-hydroxy-N-(2-(3-methyl-2-oxo-7-(3-(trifluoromethyl)benzylamino)quinoxalin-1(2H)-yl)ethyl)propanamide [compound 48]” was tested. Which IC50 did it give?
Answer: 8000 nM

Question: With “(S)-3-(2-(4-methoxyphenyl)-3-oxo-6-(3-(trifluoromethyl)benzylamino)pyrido[2,3-b]pyrazin-4(3H)-yl)butanamide [compound 39]” as the compound, how does the IC50 read?
Answer: 19000 nM

Question: How did the IC50 turn out when “(±)-2,3-dihydroxy-N-(2-(3-methyl-2-oxo-7-(3-(trifluoromethyl)benzylamino)-quinoxalin-1(2H)-yl)ethyl)-propanamide [compound 59]” was run?
Answer: 360 nM

Question: For “N-(2-(3-(4-methoxyphenyl)-7-(3-methylbenzylamino)-2-oxoquinoxalin-1(2H)-yl)ethyl)acetamide [compound 56]”, which IC50 is on record?
Answer: 18 nM

Question: Which IC50 does the source give for “N-(2-(3-methyl-2-oxo-7-(3-(trifluoromethyl)benzylamino)quinoxalin-1(2H)-yl)ethyl)thiophene-3-carboxamide [compound 51]” here?
Answer: 2.6 nM

Question: With “N-(2-(3-oxo-6-(3-(trifluoromethyl)benzylamino)-2-(4-(trifluoromethyl)phenyl)pyrido[2,3-b]pyrazin-4(3H)-yl)ethyl)acetamide [compound 37]” as the compound, how does the IC50 read?
Answer: 1300 nM

Question: “N-(2-(6-(2-chlorobenzylamino)-2-(4-methoxyphenyl)-3-oxopyrido[2,3-b]pyrazin-4(3H)-yl)ethyl)acetamide [compound 1]” was tested. Which IC50 did it give?
Answer: 4100 nM

Question: For “N-(2-(6-(3,4-dichlorobenzylamino)-2-(4-methoxyphenyl)-3-oxopyrido[2,3-b]pyrazin-4(3H)-yl)ethyl)-2-hydroxyacetamide [compound 34]”, which IC50 is on record?
Answer: 120 nM

Question: For “N-(2-(6-(3-methoxybenzylamino)-2-(4-methoxyphenyl)-3-oxopyrido[2,3-b]pyrazin-4(3H)-yl)ethyl)acetamide [compound 13]”, which IC50 is on record?
Answer: 760 nM

Question: Which IC50 does the source give for “N-(2-(7-(2-(2-chlorophenoxy)ethylamino)-3-(4-methoxyphenyl)-2-oxoquinoxalin-1(2H)-yl)ethyl)acetamide [compound 55]” here?
Answer: 250 nM

Question: How did the IC50 turn out when “benzyl 1-(2-acetamidoethyl)-3-(3,4-dichlorophenyl)-2-oxo-1,2-dihydroquinoxalin-6-ylcarbamate [compound 47]” was run?
Answer: 2300 nM

Source: US7893066B2, “Pyridol[2,3-B]pyrazinones for use as stearoyl CoA desaturase inhibitors” (Gilead Palo Alto, Inc., priority 2006, dated 2011)
